In patent US20050058745A1, “Use of Labiatae herb preparations for extending the flavor shelf life of malt beverages” (priority 2003, published 2005):

Tests used:
[1] = Dadic 1984; cited from earlier work
[2] = Trained panel flavor evaluation, light beer, forced aging; details: 5 ppm, 6 days 32° C.; for preservation of fresh flavor (words): light beer
Experimental: Separate solution of pure rosmarinic acid, pure carnosol and pure carnosic acid were prepared in ethanol as previously.
The light beer used in this study was approximately one month old and was purchased at a local market. Bottle additions were done as in Example 1.
The bottles were placed in a heated room at 32±1° C. in the dark. After the allotted aging time, the bottles of beer were transferred to a dark refrigerator and stored at approximately 2° to 4° C. until they were analyzed. Additional bottles from the same code were kept unopened in 2° to 4° C. storage. These unopened samples from the same beer code were labeled “Fresh Control” used to provide fresh samples for the trained panel.
At the appropriate times, a trained 7-member panel evaluated the beers. […] Five beers were evaluated at the session—Fresh Control, Aged No Addition, and Aged containing each one of the Labiatae treatments. The overall preference rank, the character and intensity of the aroma, the levels of paper/cardboard aroma and flavor, sour or off flavors, hang and astringency and bitterness quality and intensity were evaluated.

[3] = DCIP redox potential of light beer with carnosol; type: physicochemical; details: for DCIP Redox Potential: 2 to 4° C. for 1 day
Experimental: A 2% solution of carnosol, isolated from sage extract, was prepared by weighing 200 mg pure carnosol and bringing to 10 mL with pure ethanol. Bottles were dosed at 10 and 20 ppm carnosol with our standard bottle addition technique of opening, fobbing to exclude air, and crowning.
Bottles were stored at 2 to 4° C. for 1 day before analysis. Standard DCIP and DPPH measurements were taken.

[4] = DPPH number of light beer with carnosol; type: physicochemical; details: for DPPH No.: 2 to 4° C. for 1 day
Experimental: To perform the test, about 0.04 g of DPPH was weighed to the nearest 0.1 mg in a 100 mL volumetric, recording the exact weight of DPPH. The DPPH was dissolved in methanol and methanol was added to bring the volume to the 100 mL mark. The solution was sonicated to facilitate dissolution. The beers to be measured were opened and 12 mL of each was poured into separate 15 mL centrifuge tubes, making sure that the volumes in all tubes were equal. The analyses were done in triplicate for each beer. An extra beer sample served as a spectrophotometer blank. The beer was degassed by centrifuging it for 15 min at 6,000 rpm. Into each of two 25 mL flasks was pipeted 5 mL of the pH 4.5 water-ethanol buffer. The spectrophotometer wavelength was set to 531 nm and a buffered water blank was zeroed. 1.0 mL of DPPH solution was added to the water buffer, which was swirled at the same time a timer was started. Just before 10 minutes had elapsed, the sample was transferred to a cuvette and the absorbance (ABL) was measured. The analysis was duplicated with another buffer. For accuracy it is necessary that great care be taken to add exactly 1 mL reagent. It is also important to swirl (mix) the samples consistently as the assay is sensitive to oxygen and to the amount of reagent used. Degassed beer was used to obtain a baseline at 531 nm. After centrifugation 5 mL of the beer was transferred into the appropriate labeled 25 mL flask. 1.0 mL of DPPH solution was added, the solution was swirled and the timer was started. The Absorbance (A531) of the beer sample was recorded. This process was repeated for all samples. To eliminate any possible prejudice in order of analysis, samples were analyzed randomly. The following formula was used to calculate the amount of DPPH which reacts with 5 mL of beer: μmol DPPH=((1−A531/ABL)×(g DPPH/394))×10^6
A 2% solution of carnosol, isolated from sage extract, was prepared by weighing 200 mg pure carnosol and bringing to 10 mL with pure ethanol. […]

[5] = Walter et al. 1997; cited from earlier work

For `COc1ccc(O)c(C(C)(C)C)c1` [BHA], the “effectiveness as antioxidant for beer” value [1] is given as “ineffective”.

For `Cc1cc(C(C)(C)C)c(O)c(C(C)(C)C)c1` [BHT], the “effectiveness as antioxidant for beer” value [1] is given as “ineffective”.

With `CC(C)c1cc2c(c(O)c1O)[C@@]13CCCC(C)(C)[C@@H]1C[C@@H]2OC3=O` [CN, carnosol] the “panelists' preference for treated sample over Aged No Addition sample” value [2] was 7 of 7 panelists preferred, the “preservation of fresh flavor (words)” value [2] was “very significantly retards the rate of staling” and the “preservation of fresh flavor (words)” value ([2]; listed as Carnosol) was “significant, positive impact on preserving fresh flavor”. For the same compound, the “effect on redox potential by DCIP method” value [3] was “does not enhance the redox potential of beer”, the “DCIP Redox Potential” value ([3]; 10 ppm Carnosol) was 19.6 and the “DCIP Redox Potential” value ([3]; 20 ppm Carnosol) was 19.6. The “effect on beer's ability to reduce DPPH” value [4] was “does not enhance a beer's ability to reduce DPPH”, the “DPPH No.” value ([4]; 10 ppm Carnosol) was 33.1 μmol DPPH and the “DPPH No.” value ([4]; 20 ppm Carnosol) was 37.0 μmol DPPH.

In the case of `O=c1c(O)c(-c2ccc(O)c(O)c2)oc2cc(O)cc(O)c12` [quercitin], the “effectiveness in standardized antioxidant assays” value [5] is listed as “ineffective”.

For catechin, the “effectiveness in standardized antioxidant assays” value [5] is given as “ineffective”.
